Experimental data reported in PubChem BioAssay (NCI).
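Dose response: 5 concentrations. Exposure: 48 h. Format: 96-well plates. Endpoint: linear interpolation; highest concentration if not reached. TGI: total growth inhibition.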

Experiments:
Experiment in all cases: NCI tumour cell line growth inhibition, 48 h
[1] = test system: M19-MEL melanoma
[2] = test system: SF-539 CNS
[3] = test system: XF 498 CNS
[4] = test system: EKVX NSCLC
[5] = test system: HOP-18 NSCLC
[6] = test system: HCT-116 colon
[7] = test system: COLO 205 colon
[8] = test system: DMS 114 small cell lung
[9] = test system: 786-0 renal
[10] = test system: LOX IMVI melanoma
[11] = test system: CCRF-CEM leukemia
[12] = test system: SW-620 colon
[13] = test system: M14 melanoma
[14] = test system: SN12C renal
[15] = test system: SK-MEL-2 melanoma
[16] = test system: SK-OV-3 ovarian
[17] = test system: HL-60(TB) leukemia
[18] = test system: DMS 273 small cell lung
[19] = test system: TK-10 renal
[20] = test system: SNB-78 CNS
[21] = test system: HT29 colon
[22] = test system: SNB-75 CNS
[23] = test system: MALME-3M melanoma
[24] = test system: ACHN renal
[25] = test system: A498 renal
[26] = test system: IGROV1 ovarian
[27] = test system: UO-31 renal
[28] = test system: MOLT-4 leukemia
[29] = test system: OVCAR-5 ovarian
[30] = test system: NCI-H522 lung
[31] = test system: K-562 leukemia
[32] = test system: UACC-62 melanoma
[33] = test system: HCC-2998 colon
[34] = test system: UACC-257 melanoma
[35] = test system: NCI-H460 lung
[36] = test system: DLD-1 colon
[37] = test system: SK-MEL-5 melanoma
[38] = test system: HOP-92 NSCLC
[39] = test system: A549 NSCLC
[40] = test system: OVCAR-4 ovarian
[41] = test system: SNB-19 CNS
[42] = test system: NCI-H23 lung
[43] = test system: KM12 colon
[44] = test system: OVCAR-3 ovarian
[45] = test system: SK-MEL-28 melanoma
[46] = test system: RXF 393 renal
[47] = test system: OVCAR-8 ovarian
[48] = test system: U251 CNS
[49] = test system: HOP-62 NSCLC
[50] = test system: SF-295 CNS
[51] = test system: RPMI-8226 leukemia
[52] = test system: SR leukemia
[53] = test system: LXFL 529 NSCLC
[54] = test system: KM20L2 colon
[55] = test system: NCI-H226 lung
[56] = test system: HCT-15 colon
[57] = test system: CAKI-1 renal
[58] = test system: SF-268 CNS

## O=C(/C(=C\c1ccccc1)CN1CCOCC1)c1ccc(Br)cc1
[1]
  TGI: 3.43 µM
[2]
  TGI: 5.9 µM
[3]
  TGI: 9.72 µM
[4]
  TGI: 9.47 µM
[5]
  TGI: 3.85 µM
[6]
  TGI: 3.2 µM
[7]
  TGI: 7.71 µM
[8]
  TGI: 4.5 µM
[9]
  TGI: 3.13 µM
[10]
  TGI: 3.22 µM
[11]
  TGI: 11.1 µM
[12]
  TGI: 2.72 µM
[13]
  TGI: 3.27 µM
[14]
  TGI: 4.35 µM
[15]
  TGI: 3.74 µM
[16]
  TGI: 11.2 µM
[17]
  TGI: 4.48 µM
[18]
  TGI: 6.47 µM
[19]
  TGI: 12.2 µM
[20]
  TGI: 20.6 µM
[21]
  TGI: 4.56 µM
[22]
  TGI: 24.9 µM
[23]
  TGI: 3.31 µM
[24]
  TGI: 3.42 µM
[25]
  TGI: 12.3 µM
[26]
  TGI: 9.32 µM
[27]
  TGI: 3.29 µM
[28]
  TGI: 19 µM
[29]
  TGI: 9.14 µM
[30]
  TGI: 2.59 µM
[31]
  TGI: 15.9 µM
[32]
  TGI: 2.98 µM
[33]
  TGI: 29.6 µM
[34]
  TGI: 8.93 µM
[35]
  TGI: 8.79 µM
[36]
  TGI: 3.13 µM
[37]
  TGI: 4.08 µM
[38]
  TGI: 10.8 µM
[39]
  TGI: 17 µM
[40]
  TGI: 8.11 µM
[41]
  TGI: 12.7 µM
[42]
  TGI: 8.48 µM
[43]
  TGI: 3.74 µM
[44]
  TGI: 6.93 µM
[45]
  TGI: 3.85 µM
[46]
  TGI: 5.99 µM
[47]
  TGI: 3.34 µM
[48]
  TGI: 6.34 µM
[49]
  TGI: 13.1 µM
[50]
  TGI: 15.6 µM
[51]
  TGI: 10.7 µM
[52]
  TGI: 17.4 µM
[53]
  TGI: 4.67 µM
[54]
  TGI: 7.12 µM
[55]
  TGI: 12.7 µM
[56]
  TGI: 4.22 µM
[57]
  TGI: 3.95 µM
[58]
  TGI: 9.9 µM

## CC1=CC2CCC1(C)C/C2=C(/C)OC=O (stereo not drawn)
[1]
  TGI: > 100 µM
[2]
  TGI: > 100 µM
[3]
  TGI: > 100 µM
[4]
  TGI: > 100 µM
[5]
  TGI: > 100 µM
[6]
  TGI: > 100 µM
[7]
  TGI: > 100 µM
[8]
  TGI: > 100 µM
[9]
  TGI: > 100 µM
[10]
  TGI: > 100 µM
[11]
  TGI: > 100 µM
[12]
  TGI: > 100 µM
[13]
  TGI: > 100 µM
[14]
  TGI: > 100 µM
[15]
  TGI: > 100 µM
[16]
  TGI: > 100 µM
[17]
  TGI: > 100 µM
[18]
  TGI: > 100 µM
[19]
  TGI: > 100 µM
[20]
  TGI: > 100 µM
[21]
  TGI: > 100 µM
[22]
  TGI: > 100 µM
[24]
  TGI: > 100 µM
[26]
  TGI: > 100 µM
[27]
  TGI: > 100 µM
[28]
  TGI: > 100 µM
[29]
  TGI: > 100 µM
[30]
  TGI: > 100 µM
[31]
  TGI: > 100 µM
[32]
  TGI: > 100 µM
[34]
  TGI: > 100 µM
[35]
  TGI: > 100 µM
[36]
  TGI: > 100 µM
[37]
  TGI: > 100 µM
[38]
  TGI: > 100 µM
[39]
  TGI: > 100 µM
[40]
  TGI: > 100 µM
[41]
  TGI: > 100 µM
[42]
  TGI: > 100 µM
[43]
  TGI: > 100 µM
[44]
  TGI: > 100 µM
[45]
  TGI: > 100 µM
[46]
  TGI: > 100 µM
[47]
  TGI: > 100 µM
[48]
  TGI: > 100 µM
[49]
  TGI: > 100 µM
[50]
  TGI: > 100 µM
[51]
  TGI: > 100 µM
[52]
  TGI: > 100 µM
[53]
  TGI: > 100 µM
[54]
  TGI: > 100 µM
[55]
  TGI: > 100 µM
[56]
  TGI: > 100 µM
[57]
  TGI: > 100 µM
[58]
  TGI: > 100 µM
